Results: US5672715A, “Herbicidal substituted 3-aryl-pyrazoles” (Monsanto Company, priority 1995, dated 1997)

Experiments:
Type in all cases: in vivo
[1] = tested on: Birdseye Speedwell; test: pre-emergence herbicide test; conditions: pre-emergence, 0.25 lb/A; read-out: % plant inhibition
Procedure, shortened: (§1)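 Seeds were sown on compacted topsoil in pans and covered with a topsoil layer carrying a known amount of active ingredient in acetone or water, applied before or after covering. Pans were bottom-watered on a greenhouse bench, and % inhibition was scored about 14 days after seeding and treatment.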

[2] = tested on: Green Foxtail; test: pre-emergence herbicide test; conditions: Setaria viridis, pre-emergence; 0.25 lb/A; read-out: % plant inhibition
Procedure, shortened: as §1

[3] = tested on: Wheat; test: pre-emergence herbicide test; conditions: Triticum aestivum, pre-emergence, 0.25 lb/A; read-out: % plant inhibition
Procedure, shortened: as §1

[4] = tested on: Bedstraw Catchweed; test: pre-emergence herbicide test; conditions: Galium aparine, pre-emergence, 0.25 lb/A; read-out: % plant inhibition
Procedure, shortened: as §1

[5] = tested on: Velvetleaf; test: pre-emergence herbicide test; conditions: Abutilon theophrasti, pre-emergence, 0.25 lb/A; read-out: % plant inhibition
Procedure, shortened: as §1

[6] = tested on: Corn; test: pre-emergence herbicide test; conditions: Zea mays, pre-emergence, 0.25 lb/A; read-out: % plant inhibition
Procedure, shortened: as §1

[7] = tested on: Wild Oats; test: pre-emergence herbicide test; conditions: Avena fatua, pre-emergence, 0.25 lb/A; read-out: % plant inhibition
Procedure, shortened: as §1

[8] = tested on: Blackgrass; test: pre-emergence herbicide test; conditions: Alopecurus myosuroides, pre-emergence, 0.25 lb/A; read-out: % plant inhibition
Procedure, shortened: as §1

[9] = tested on: Rape; test: pre-emergence herbicide test; conditions: pre-emergence, 0.25 lb/A; read-out: % plant inhibition
Procedure, shortened: as §1

[10] = tested on: Morning Glory; test: pre-emergence herbicide test; conditions: Ipomoea, pre-emergence, 0.25 lb/A; read-out: % plant inhibition
Procedure, shortened: as §1

[11] = tested on: Giant Foxtail; test: pre-emergence herbicide test; conditions: Setaria faberi, pre-emergence, 0.25 lb/A; read-out: % plant inhibition
Procedure, shortened: as §1

[12] = tested on: Seedling Johnsongrass; test: pre-emergence herbicide test; conditions: Sorghum halepense, pre-emergence, 0.25 lb/A; read-out: % plant inhibition
Procedure, shortened: as §1

[13] = tested on: Downy Brome; test: pre-emergence herbicide test; conditions: Bromus tectorum, pre-emergence, 0.25 lb/A; read-out: % plant inhibition
Procedure, shortened: as §1

[14] = tested on: Barnyardgrass; test: pre-emergence herbicide test; conditions: Echinochloa crus-galli, pre-emergence, 0.25 lb/A; read-out: % plant inhibition
Procedure, shortened: as §1

[15] = tested on: Cocklebur; test: pre-emergence herbicide test; conditions: Xanthium strumarium, pre-emergence, 0.25 lb/A; read-out: % plant inhibition
Procedure, shortened: as §1

[16] = tested on: Common Chickweed; test: pre-emergence herbicide test; conditions: pre-emergence, 0.25 lb/A; read-out: % plant inhibition
Procedure, shortened: as §1

[17] = tested on: Soybean; test: pre-emergence herbicide test; conditions: Glycine max, pre-emergence, 0.25 lb/A; read-out: % plant inhibition
Procedure, shortened: as §1

[18] = tested on: Birdseye Speedwell; test: post-emergence herbicide test; conditions: post-emergence, 0.25 lb/A; read-out: % plant inhibition
Procedure, shortened: (§2)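 Greenhouse pot test: seeds pressed into compacted topsoil in pans, covered, watered as needed; at two to three weeks plants were sprayed by atomizer at 170.3 kPa, 1870 L/Ha, with about 0.4% v/v emulsifier. Value is percent inhibition per species.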

[19] = tested on: Green Foxtail; test: post-emergence herbicide test; conditions: Setaria viridis, post-emergence, 0.25 lb/A; read-out: % plant inhibition
Procedure, shortened: as §2

[20] = tested on: Wheat; test: post-emergence herbicide test; conditions: Triticum aestivum, post-emergence, 0.25 lb/A; read-out: % plant inhibition
Procedure, shortened: as §2

[21] = tested on: Bedstraw Catchweed; test: post-emergence herbicide test; conditions: Galium aparine, post-emergence, 0.25 lb/A; read-out: % plant inhibition
Procedure, shortened: as §2

[22] = tested on: Velvetleaf; test: post-emergence herbicide test; conditions: Abutilon theophrasti, post-emergence, 0.25 lb/A; read-out: % plant inhibition
Procedure, shortened: as §2

[23] = tested on: Corn; test: post-emergence herbicide test; conditions: Zea mays, post-emergence, 0.25 lb/A; read-out: % plant inhibition
Procedure, shortened: as §2

[24] = tested on: Wild Oats; test: post-emergence herbicide test; conditions: Avena fatua, post-emergence, 0.25 lb/A; read-out: % plant inhibition
Procedure, shortened: as §2

[25] = tested on: Blackgrass; test: post-emergence herbicide test; conditions: Alopecurus myosuroides, post-emergence, 0.25 lb/A; read-out: % plant inhibition
Procedure, shortened: as §2

[26] = tested on: Rape; test: post-emergence herbicide test; conditions: post-emergence, 0.25 lb/A; read-out: % plant inhibition
Procedure, shortened: as §2

[27] = tested on: Morning Glory; test: post-emergence herbicide test; conditions: Ipomoea, post-emergence, 0.25 lb/A; read-out: % plant inhibition
Procedure, shortened: as §2

[28] = tested on: Giant Foxtail; test: post-emergence herbicide test; conditions: Setaria faberi, post-emergence, 0.25 lb/A; read-out: % plant inhibition
Procedure, shortened: as §2

[29] = tested on: Seedling Johnsongrass; test: post-emergence herbicide test; conditions: Sorghum halepense, post-emergence, 0.25 lb/A; read-out: % plant inhibition
Procedure, shortened: as §2

[30] = tested on: Downy Brome; test: post-emergence herbicide test; conditions: Bromus tectorum, post-emergence, 0.25 lb/A; read-out: % plant inhibition
Procedure, shortened: as §2

[31] = tested on: Barnyardgrass; test: post-emergence herbicide test; conditions: Echinochloa crus-galli, post-emergence, 0.25 lb/A; read-out: % plant inhibition
Procedure, shortened: as §2

[32] = tested on: Cocklebur; test: post-emergence herbicide test; conditions: Xanthium strumarium, post-emergence, 0.25 lb/A; read-out: % plant inhibition
Procedure, shortened: as §2

[33] = tested on: Common Chickweed; test: post-emergence herbicide test; conditions: post-emergence, 0.25 lb/A; read-out: % plant inhibition
Procedure, shortened: as §2

[34] = tested on: Soybean; test: post-emergence herbicide test; conditions: Glycine max, post-emergence, 0.25 lb/A; read-out: % plant inhibition
Procedure, shortened: as §2

| SMILES | inhibition at 280.212 g/ha [1] [%] | inhibition at 280.212 g/ha [2] [%] | inhibition at 280.212 g/ha [3] [%] | inhibition at 280.212 g/ha [4] [%] | inhibition at 280.212 g/ha [5] [%] | inhibition at 280.212 g/ha [6] [%] | inhibition at 280.212 g/ha [7] [%] | inhibition at 280.212 g/ha [8] [%] | inhibition at 280.212 g/ha [9] [%] | inhibition at 280.212 g/ha [10] [%] | inhibition at 280.212 g/ha [11] [%] | inhibition at 280.212 g/ha [12] [%] | inhibition at 280.212 g/ha [13] [%] | inhibition at 280.212 g/ha [14] [%] | inhibition at 280.212 g/ha [15] [%] | inhibition at 280.212 g/ha [16] [%] | inhibition at 280.212 g/ha [17] [%] | inhibition at 280.212 g/ha [18] [%] | inhibition at 280.212 g/ha [19] [%] | inhibition at 280.212 g/ha [20] [%] | further results |
| --- | --- | --- | --- | --- | --- | --- | --- | --- | --- | --- | --- | --- | --- | --- | --- | --- | --- | --- | --- | --- | --- |
| COC(=O)CSCc1cc(-c2nn(C)c(C(F)(F)F)c2C)c(F)cc1Cl [Compound 31] | 25 | 20 | 0 | 30 | 80 | 10 | 5 | 5 | 5 | 45 | 10 | 40 | 5 | 5 | 15 | 25 | 3 | 100 | 75 | 20 | inhibition at 280.212 g/ha [21]: 70%; inhibition at 280.212 g/ha [22]: 99%; inhibition at 280.212 g/ha [23]: 50%; inhibition at 280.212 g/ha [24]: 35%; inhibition at 280.212 g/ha [25]: 20%; inhibition at 280.212 g/ha [26]: 75%; inhibition at 280.212 g/ha [27]: 80%; inhibition at 280.212 g/ha [28]: 50%; inhibition at 280.212 g/ha [29]: 90%; inhibition at 280.212 g/ha [30]: 55%; inhibition at 280.212 g/ha [31]: 70%; inhibition at 280.212 g/ha [32]: 99%; inhibition at 280.212 g/ha [33]: 95%; inhibition at 280.212 g/ha [34]: 35% |
| Cc1c(-c2cc(CSC(C)C)c(Cl)cc2F)nn(C)c1C(F)(F)F [Compound 29] | 70 | 95 | 0 | 70 | 70 | 30 | 15 | 40 | 15 | 65 | 95 | 100 | 10 | 80 | 15 | 90 | 20 | 100 | 95 | 12 | inhibition at 280.212 g/ha [21]: 100%; inhibition at 280.212 g/ha [22]: 99%; inhibition at 280.212 g/ha [23]: 20%; inhibition at 280.212 g/ha [24]: 75%; inhibition at 280.212 g/ha [25]: 70%; inhibition at 280.212 g/ha [26]: 100%; inhibition at 280.212 g/ha [27]: 90%; inhibition at 280.212 g/ha [28]: 65%; inhibition at 280.212 g/ha [29]: 90%; inhibition at 280.212 g/ha [30]: 70%; inhibition at 280.212 g/ha [31]: 90%; inhibition at 280.212 g/ha [32]: 90%; inhibition at 280.212 g/ha [33]: 95%; inhibition at 280.212 g/ha [34]: 90% |
| Cn1nc(-c2cc(C(=O)O)c(Cl)cc2F)c(C=O)c1C(F)(F)F [Compound 3, 2-Chloro-4-fluoro-5-[4-formyl-1-methyl-5-(trifluoromethyl)-1H-pyrazol-3-yl]benzoic acid] | 0 | 30 | 0 | 5 | 25 | 0 | 5 | 5 | 5 | 60 | 5 | 25 | 0 | 15 | 5 | 0 | 20 | 75 | 10 | 8 | inhibition at 280.212 g/ha [21]: 15%; inhibition at 280.212 g/ha [22]: 85%; inhibition at 280.212 g/ha [23]: 2%; inhibition at 280.212 g/ha [24]: 5%; inhibition at 280.212 g/ha [25]: 0%; inhibition at 280.212 g/ha [26]: 10%; inhibition at 280.212 g/ha [27]: 25%; inhibition at 280.212 g/ha [28]: 0%; inhibition at 280.212 g/ha [29]: 0%; inhibition at 280.212 g/ha [30]: 0%; inhibition at 280.212 g/ha [31]: 0%; inhibition at 280.212 g/ha [32]: 65%; inhibition at 280.212 g/ha [33]: 25%; inhibition at 280.212 g/ha [34]: 15% |
| CC(C)OC(=O)c1cc(-c2nn(C)c(C(F)(F)F)c2CO)c(F)cc1Cl [Compound 14, 2-Chloro-4-fluoro-5-[4-(hydroxymethyl)-1-methyl-5-(trifluoromethyl)-1H-pyrazol-3-yl]benzoic acid, 1-methylethyl ester] | 98 | 100 | 2 | 20 | 60 | 15 | 50 | 65 | 5 | 40 | 98 | 97 | 30 | 90 | 15 | 98 | 8 | 90 | 65 | 13 | inhibition at 280.212 g/ha [21]: 40%; inhibition at 280.212 g/ha [22]: 99%; inhibition at 280.212 g/ha [23]: 10%; inhibition at 280.212 g/ha [24]: 50%; inhibition at 280.212 g/ha [25]: 60%; inhibition at 280.212 g/ha [26]: 75%; inhibition at 280.212 g/ha [27]: 85%; inhibition at 280.212 g/ha [28]: 25%; inhibition at 280.212 g/ha [29]: 80%; inhibition at 280.212 g/ha [30]: 60%; inhibition at 280.212 g/ha [31]: 65%; inhibition at 280.212 g/ha [32]: 95%; inhibition at 280.212 g/ha [33]: 45%; inhibition at 280.212 g/ha [34]: 25% |
| Cc1c(-c2cc(C(N)=O)c(Cl)cc2F)nn(C)c1C(F)(F)F [Compound 21] | 100 | 100 | 5 | 90 | 25 | 16 | 60 | 95 | 90 | 20 | 45 | 85 | 35 | 90 | 20 | 98 | 15 | 50 | 25 | 5 | inhibition at 280.212 g/ha [21]: 65%; inhibition at 280.212 g/ha [22]: 90%; inhibition at 280.212 g/ha [23]: 10%; inhibition at 280.212 g/ha [24]: 20%; inhibition at 280.212 g/ha [25]: 10%; inhibition at 280.212 g/ha [26]: 20%; inhibition at 280.212 g/ha [27]: 90%; inhibition at 280.212 g/ha [28]: 35%; inhibition at 280.212 g/ha [29]: 35%; inhibition at 280.212 g/ha [30]: 25%; inhibition at 280.212 g/ha [31]: 25%; inhibition at 280.212 g/ha [32]: 65%; inhibition at 280.212 g/ha [33]: 30%; inhibition at 280.212 g/ha [34]: 35% |
